Assay results from ChEMBL document CHEMBL1255547, “Preparation and characterization of novel 4-bromo-3,4-dimethyl-1-phenyl-2-phospholene 1-oxide and the analogous phosphorus heterocycles or phospha sugars” (Bioorg Med Chem Lett, 2010).

Tested on: U-937
Test: Cytotoxicity against human U937 cells after 48 hrs by MTT assat
Format: functional, cell-based
Conditions: U-937, 48 h

Structure (SMILES) | IC50
O=P1(c2ccccc2)C=CCC1 (configuration not stated) | > 1000 µM
CC1=CP(=O)(c2ccccc2)CC1 (configuration not stated) | 900 µM
CCC1=CP(=O)(c2ccccc2)CC1Br (configuration not stated) | > 1000 µM
CC1=CP(=O)(c2ccccc2)CC1(C)Br (configuration not stated) | 5.6 µM
CC1=CP(=O)(c2ccccc2)CC1C (configuration not stated) | 350 µM
O=P1(c2ccccc2)C=CC(Br)C1 (configuration not stated) | > 1000 µM
CC1=CP(=O)(c2ccccc2)CC1Br (configuration not stated) | 87 µM
